In patent US11986471B2, “Compounds and methods of use” (Tango Therapeutics, Inc., priority 2018, dated 2024):
pIC50: −log10 of the molar value.

What was measured:
PRMT5 [1] = molecular target: T1, PRMT5 (Homo sapiens, UniProt O14744); experiment: PRMT5 IC50 assay in the presence of SAM as cofactor; assay type: biochemical
T1 construct: purchased Viva (custom protein)
In short: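 Values reflect IC50 (μM) on human PRMT5 under three cofactor states. Selectivity is derived as the quotient of SAM-state Ki over MTA-state Ki, with each Ki obtained from its IC50.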

HAP1 MTAP-deleted = experiment: SDMA in-cell western assay, HAP1 MTAP-deleted cell line; assay type: cell-based; conditions: for pIC50: Homo sapiens, HAP1 MTAP-deleted cell line; for MTAP Intact/Deleted Ratio: IC50 ratio HAP1 MTAP-intact / HAP1 MTAP-deleted
In short: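 MTAP-null HAP1 cells, the deleted member of an isogenic pair with endogenously MTAP-expressing HAP1, are treated with compound. SDMA is then quantified by in-cell western and an IC50 is calculated.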

PRMT5 [2] = molecular target: T1, PRMT5; experiment: PRMT5 IC50 assay in the presence of MTA as cofactor; assay type: biochemical; conditions: for pIC50: PRMT5, MTA as cofactor; for SAM/MTA Ratio: ratio between Ki in the presence of SAM and Ki in the presence of MTA
In short: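 Ki conversion: SAM arm, Ki=IC50/1.5; MTA arm, Ki=IC50/13.5. No-cofactor arm reported as IC50 only. Selectivity expressed as Ki(SAM)/Ki(MTA).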

PRMT5 [3] = molecular target: T1, PRMT5; experiment: PRMT5 IC50 assay with no cofactor; assay type: biochemical; conditions: read-out: No Co-factor IC50
In short: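 Results given as IC50 (μM), from which Ki follows by dividing by 1.5 in the SAM condition or by 13.5 in the MTA condition. The ratio of SAM Ki to MTA Ki indicates MTA-cooperative preference.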

HAP1 MTAP-intact = experiment: SDMA in-cell western assay, HAP1 MTAP-intact cell line; assay type: cell-based; conditions: Homo sapiens
In short: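 Cells from two matched HAP1 lines, MTAP-null and MTAP-expressing at endogenous levels, are treated with compound. SDMA is then quantified by in-cell western and an IC50 is calculated for each line.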

T1 sequence (O14744 whole entry): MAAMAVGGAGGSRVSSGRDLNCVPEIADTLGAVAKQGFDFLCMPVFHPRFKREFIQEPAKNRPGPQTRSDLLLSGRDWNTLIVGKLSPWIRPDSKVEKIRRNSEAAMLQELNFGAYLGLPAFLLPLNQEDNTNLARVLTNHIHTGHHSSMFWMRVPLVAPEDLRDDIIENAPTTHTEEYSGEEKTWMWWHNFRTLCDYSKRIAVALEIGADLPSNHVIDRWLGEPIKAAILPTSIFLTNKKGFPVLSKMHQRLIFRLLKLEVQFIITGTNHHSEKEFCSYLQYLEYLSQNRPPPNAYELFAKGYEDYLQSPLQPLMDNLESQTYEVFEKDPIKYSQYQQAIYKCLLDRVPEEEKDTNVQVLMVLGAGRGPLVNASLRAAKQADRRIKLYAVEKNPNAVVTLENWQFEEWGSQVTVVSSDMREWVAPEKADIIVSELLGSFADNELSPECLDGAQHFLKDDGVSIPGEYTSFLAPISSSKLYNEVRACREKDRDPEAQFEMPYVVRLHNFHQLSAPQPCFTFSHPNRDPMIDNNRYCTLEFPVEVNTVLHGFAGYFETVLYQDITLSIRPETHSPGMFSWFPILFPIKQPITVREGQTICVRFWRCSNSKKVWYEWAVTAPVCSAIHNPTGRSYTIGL
T1 sequence (Q9BQA1 whole entry partner): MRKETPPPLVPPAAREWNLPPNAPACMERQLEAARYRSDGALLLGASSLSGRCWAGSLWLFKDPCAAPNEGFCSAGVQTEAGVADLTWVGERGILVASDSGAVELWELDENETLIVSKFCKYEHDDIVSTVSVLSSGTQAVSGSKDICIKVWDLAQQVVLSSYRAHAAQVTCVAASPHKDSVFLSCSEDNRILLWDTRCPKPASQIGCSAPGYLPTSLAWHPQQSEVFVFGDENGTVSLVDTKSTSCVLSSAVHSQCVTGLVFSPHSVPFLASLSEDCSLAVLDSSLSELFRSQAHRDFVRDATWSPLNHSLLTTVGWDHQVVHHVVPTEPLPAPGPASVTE

SMILES	pIC50 (PRMT5 [1])	pIC50 (HAP1 MTAP-deleted)	MTAP Intact/Deleted Ratio (HAP1 MTAP-deleted)	pIC50 (PRMT5 [2])	SAM/MTA Ratio (PRMT5 [2])	pIC50 (PRMT5 [3])	pIC50 (HAP1 MTAP-intact)
O=C(NC[C@H](O)CN1CCc2c(ccc(OCc3cnco3)c2Cl)C1)c1ccc(OC2CCN(Cc3ccncc3)CC2)cc1 [Compound 301, (S)—N-(3-(5-chloro-6-(oxazol-5-ylmethoxy)-3,4-dihydroisoquinolin-2(1H)-yl)-2-hydroxypropyl)-4-((1-(pyridin-4-ylmethyl)piperidin-4-yl)oxy)benzamide]	6.30 to 7.30	5.00 to 6.00	C* (an IC50 ratio of less than 3 fold between the IC50 in the HAP1 MTAP-intact cell line and the HAP1 MTAP-deleted cell line)	6.30 to 7.30	A (a Ki ratio greater than or equal to 10 fold between the Ki in the presence of SAM and the Ki in the presence of MTA)	5.30 to 6.30	≤ 5.00
COc1cc(C(=O)NC[C@H](O)CN2CCc3c(ccc(OCc4cnco4)c3Cl)C2)cc(NC2CCC2)n1 [Compound 302, (S)—N-(3-(5-chloro-6-(oxazol-5-ylmethoxy)-3N-dihydroisoquinolin-2(1H)-yl)-2-hydroxypropyl)-2-(cyclobutylamino)-6-methoxyisonicotinamide]	5.30 to 6.30	≤ 5.00	C* (an IC50 ratio of less than 3 fold between the IC50 in the HAP1 MTAP-intact cell line and the HAP1 MTAP-deleted cell line)	6.30 to 7.30	A (a Ki ratio greater than or equal to 10 fold between the Ki in the presence of SAM and the Ki in the presence of MTA)	≤ 5.30	≤ 5.00
CCN(C)c1nc(NC2COC2)cc(C(=O)NC[C@H](O)CN2CCc3c(ccc(OCc4cnco4)c3Cl)C2)n1 [Compound 303]	6.30 to 7.30	5.00 to 6.00	C* (an IC50 ratio of less than 3 fold between the IC50 in the HAP1 MTAP-intact cell line and the HAP1 MTAP-deleted cell line)	6.30 to 7.30	A (a Ki ratio greater than or equal to 10 fold between the Ki in the presence of SAM and the Ki in the presence of MTA)	≤ 5.30	≤ 5.00
O=C(NC[C@H](O)CN1CCc2cc(OCc3cnco3)ccc2C1)c1cc(NC2COC2)nc(N2CCOCC2)n1 [Compound 304, (S)—N-(2-hydroxy-3-(6-(oxazol-5-ylmethoxy)-3N-dihydroisoquinolin-2(1H)-yl)propyl)-2-morpholino-6-(oxetan-3-ylamino)pyrimidine-4-carboxamide]	6.30 to 7.30	5.00 to 6.00	C* (an IC50 ratio of less than 3 fold between the IC50 in the HAP1 MTAP-intact cell line and the HAP1 MTAP-deleted cell line)	6.30 to 7.30		5.30 to 6.30	5.00 to 6.00
O=C(NC[C@H](O)CN1CCc2c(ccc(OCc3cnco3)c2Cl)C1)c1cc(NC2CCC2)nc(N2CCCCC2)c1 [Compound 305, (S)—N-(3-(5-chloro-6-(oxazol-5-ylmethoxy)-3N-dihydroisoquinolin-2(1H)-yl)-2-hydroxypropyl)-2-(cyclobutylamino)-6-(piperidin-1-yl)isonicotinamide]	5.30 to 6.30	5.00 to 6.00	C* (an IC50 ratio of less than 3 fold between the IC50 in the HAP1 MTAP-intact cell line and the HAP1 MTAP-deleted cell line)	5.30 to 6.30	A (a Ki ratio greater than or equal to 10 fold between the Ki in the presence of SAM and the Ki in the presence of MTA)	≤ 5.30	≤ 5.00
CC(C)(C)N1CCN(c2cc(C(=O)NC[C@H](O)CN3CCc4cc(OCc5cnco5)ccc4C3)cc(NC3CCC3)n2)CC1 [Compound 306, (S)-2-(4-(tert-butyl)piperazin-1-yl)-6-(cyclobutylamino)-N-(2-hydroxy-3-(6-(oxazol-5-ylmethoxy)-3N-dihydroisoquinolin-2(1H)-yl)propyl)isonicotinamide]	6.30 to 7.30	≤ 5.00	C* (an IC50 ratio of less than 3 fold between the IC50 in the HAP1 MTAP-intact cell line and the HAP1 MTAP-deleted cell line)	6.30 to 7.30	A (a Ki ratio greater than or equal to 10 fold between the Ki in the presence of SAM and the Ki in the presence of MTA)	5.30 to 6.30	5.00 to 6.00
CC(C)Cc1cc(C(=O)NC[C@H](O)CN2CCc3cc(OCc4cnco4)ccc3C2)cc(NC2CCC2)n1 [Compound 307, (S)-2-(cyclobutylamino)-N-(2-hydroxy-3-(6-(oxazol-5-ylmethoxy)-3,4-dihydroisoquinolin-2(1H)-yl)propyl)-6-isobutylisonicotinamide]	5.30 to 6.30	> 6.00	C* (an IC50 ratio of less than 3 fold between the IC50 in the HAP1 MTAP-intact cell line and the HAP1 MTAP-deleted cell line)	6.30 to 7.30	A (a Ki ratio greater than or equal to 10 fold between the Ki in the presence of SAM and the Ki in the presence of MTA)	≤ 5.30	5.00 to 6.00
CC(C)(C)c1cc(C(=O)NC[C@H](O)CN2CCc3cc(OCc4cnco4)ccc3C2)cc(NC2CCC2)n1 [Compound 308, (S)-2-(tert-butyl)-6-(cyclobutylamino)-N-(2-hydroxy-3-(6-(oxazol-5-ylmethoxy)-3,4-dihydroisoquinolin-2(1H)-yl)propyl)isonicotinamide]	5.30 to 6.30	≤ 5.00	C* (an IC50 ratio of less than 3 fold between the IC50 in the HAP1 MTAP-intact cell line and the HAP1 MTAP-deleted cell line)	5.30 to 6.30	A (a Ki ratio greater than or equal to 10 fold between the Ki in the presence of SAM and the Ki in the presence of MTA)	≤ 5.30	≤ 5.00
CCC(=O)N1CCN(c2nc(NC3COC3)cc(C(=O)NC[C@H](O)CN3CCc4cc(OCc5cnco5)ccc4C3)n2)CC1 [Compound 309, (S)—N-(2-hydroxy-3-(6-(oxazol-5-ylmethoxy)-3,4-dihydroisoquinolin-2(1H)-yl)propyl)-6-(oxetan-3-ylamino)-2-(4-propionylpiperazin-1-yl)pyrimidine-4-carboxamide]	6.30 to 7.30	5.00 to 6.00	C* (an IC50 ratio of less than 3 fold between the IC50 in the HAP1 MTAP-intact cell line and the HAP1 MTAP-deleted cell line)	6.30 to 7.30	A (a Ki ratio greater than or equal to 10 fold between the Ki in the presence of SAM and the Ki in the presence of MTA)	5.30 to 6.30	≤ 5.00
COc1cc(C(=O)NC[C@H](O)CN2CCc3cc(OCc4cnco4)ccc3C2)cc(NC2CCC2)n1 [Compound 310, (S)-2-(cyclobutylamino)-N-(2-hydroxy-3-(6-(oxazol-5-ylmethoxy)-3,4-dihydroisoquinolin-2(1H)-yl)propyl)-6-methoxyisonicotinamide]	5.30 to 6.30	5.00 to 6.00	B* (an IC50 ratio greater than or equal to 3 fold but lower than 10 fold between the IC50 in the HAP1 MTAP-intact cell line and the HAP1 MTAP-deleted cell line)	6.30 to 7.30	A (a Ki ratio greater than or equal to 10 fold between the Ki in the presence of SAM and the Ki in the presence of MTA)	≤ 5.30	5.00 to 6.00
O=C(NC[C@H](O)CN1CCc2c(ccc(OCc3cnco3)c2Cl)C1)c1ccnc(NC2CCC(F)CC2)c1 (stereo partly drawn) [Compound 311, (S)—N-(3-(5-chloro-6-(oxazol-5-ylmethoxy)-3N-dihydroisoquinolin-2(1H)-yl)-2-hydroxypropyl)-2-((4-fluorocyclohexyl)amino)isonicotinamide]	6.30 to 7.30	≤ 5.00	C* (an IC50 ratio of less than 3 fold between the IC50 in the HAP1 MTAP-intact cell line and the HAP1 MTAP-deleted cell line)	6.30 to 7.30	A (a Ki ratio greater than or equal to 10 fold between the Ki in the presence of SAM and the Ki in the presence of MTA)	≤ 5.30	≤ 5.00
CCCN(C)c1nc(NC2COC2)cc(C(=O)NC[C@H](O)CN2CCc3c(ccc(OCc4cnco4)c3Cl)C2)n1 [Compound 312, (S)—N-(3-(5-chloro-6-(oxazol-5-ylmethoxy)-3N-dihydroisoquinolin-2(1H)-yl)-2-hydroxypropyl)-2-(methyl(propyl)amino)-6-(oxetan-3-ylamino)pyrimidine-4-carboxamide]	6.30 to 7.30	5.00 to 6.00	B* (an IC50 ratio greater than or equal to 3 fold but lower than 10 fold between the IC50 in the HAP1 MTAP-intact cell line and the HAP1 MTAP-deleted cell line)	6.30 to 7.30	A (a Ki ratio greater than or equal to 10 fold between the Ki in the presence of SAM and the Ki in the presence of MTA)	5.30 to 6.30	≤ 5.00
CC(C)C(=O)N1CCN(c2nc(NC3COC3)cc(C(=O)NC[C@H](O)CN3CCc4cc(OCc5cnco5)ccc4C3)n2)CC1 [Compound 313]	6.30 to 7.30	5.00 to 6.00	C* (an IC50 ratio of less than 3 fold between the IC50 in the HAP1 MTAP-intact cell line and the HAP1 MTAP-deleted cell line)	6.30 to 7.30	A (a Ki ratio greater than or equal to 10 fold between the Ki in the presence of SAM and the Ki in the presence of MTA)	5.30 to 6.30	5.00 to 6.00
